# Test results taken from patent US11377442B2, “Small molecule agonists and antagonists of NR2F6 activity” (ZANDER THERAPEUTICS, INC., priority 2016, dated 2022).
# Where two headings read alike, the source gives them in different places.
# How the values were obtained:
# PPB = assay type: in vitro ADME; conditions: for recovery: plasma
# Renilla [1] = test: Renilla signal, LBD, cmpd/DMSO (NR2F6 LBD transfected cells); assay type: cell-based
# NR2F6 = molecular target: T1, NR2F6 (Homo sapiens, UniProt P10588); test: NR2F6 agonist screening, Firefly signal cmpd/DMSO; assay type: cell-based
# T1 construct: expressed in transfected cells; also transient transfection
# T1 sequence (P10588 1-404): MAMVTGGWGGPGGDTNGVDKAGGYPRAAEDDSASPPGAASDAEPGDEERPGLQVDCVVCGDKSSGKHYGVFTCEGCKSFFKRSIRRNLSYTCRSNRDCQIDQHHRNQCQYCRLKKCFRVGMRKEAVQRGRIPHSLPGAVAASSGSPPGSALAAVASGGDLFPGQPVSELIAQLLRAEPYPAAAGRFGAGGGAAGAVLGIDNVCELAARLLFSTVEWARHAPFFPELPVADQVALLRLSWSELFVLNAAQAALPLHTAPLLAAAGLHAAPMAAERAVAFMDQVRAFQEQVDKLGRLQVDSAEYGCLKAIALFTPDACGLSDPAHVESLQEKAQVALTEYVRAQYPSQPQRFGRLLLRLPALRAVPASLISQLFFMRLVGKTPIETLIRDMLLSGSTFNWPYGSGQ
# [2] = Microsomal stability in mouse liver microsomes; assay type: in vitro ADME
# NR2F6 LBD = molecular target: T2, NR2F6 LBD (Homo sapiens, UniProt P10588); test: NR2F6 LBD transient transfection; assay type: cell-based
# T2 construct: expressed in transfected cells
# T2 sequence (P10588 165-393 limits assumed): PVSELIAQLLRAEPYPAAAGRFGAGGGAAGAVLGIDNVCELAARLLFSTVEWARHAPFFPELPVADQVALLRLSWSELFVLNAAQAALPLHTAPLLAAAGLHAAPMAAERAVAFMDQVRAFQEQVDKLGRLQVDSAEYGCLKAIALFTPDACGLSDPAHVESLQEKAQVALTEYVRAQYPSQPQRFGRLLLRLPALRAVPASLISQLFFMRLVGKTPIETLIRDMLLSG
# Summary of the method: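 LBD-transfected cells treated at 40, 10, 2 and 0.5 μM (4 replicates); cytotoxicity measured in parallel, normalized to DMSO (0%) and zero signal (100%). Higher concentrations excluded where signal loss reflected toxicity.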
# Renilla [3] = test: Renilla signal in NR2F6 agonist screening, cmpd/DMSO; assay type: cell-based; conditions: Renilla
# HEK293 pGL4 = test: Firefly_pGL signal, cmpd/DMSO (pGL4 control cells); assay type: cell-based; conditions: Homo sapiens
# [4] = mouse, in vivo
# [5] = Microsomal stability in human liver microsomes; assay type: in vitro ADME
# [6] = read-out: Renilla F4, cmpd/DMSO (mean)
# [7] = F4, 1% FBS, read-out: Renilla, F4, 1% FBS, cmpd/DMSO (mean)
# [8] = F4, 10% FBS, read-out: Renilla, F4, 10% FBS, cmpd/DMSO (mean)
smiles,measurement,setting,value
COCCN[C@H]1CS(=O)(=O)C[C@@H]1S(=O)(=O)c1ccc(Cl)cc1 [Compound D136],"%, Bound",PPB; Human,51.6%
same,"%, Free (50% pI)",PPB; Human,65.3%
same,"%, Free (recalc from 50% pI)",PPB; Human,48.4%
same,"Permeability, %",PPB; Human,94%
same,"%, Bound",PPB; Rat,52.0%
same,"%, Free (50% pI)",PPB; Rat,64.9%
same,"%, Free (recalc from 50% pI)",PPB; Rat,48.0%
same,"Permeability, %",PPB; Rat,94%
same,recovery,PPB; human,56.9%
same,recovery,PPB; rat,122%
same,"Renilla LBD, cmpd/DMSO (mean)",Renilla [1]; 0.5 uM,1.1
same,"Renilla LBD, cmpd/DMSO (mean)",Renilla [1]; 2 uM,1.0
same,"Renilla LBD, cmpd/DMSO (mean)",Renilla [1]; 10 uM,1.0
same,"Renilla LBD, cmpd/DMSO (mean)",Renilla [1]; 40 uM,0.6
same,"Firefly F4, cmpd/DMSO (mean)",NR2F6; 0.5 uM,1.5
same,"Firefly F4, cmpd/DMSO (mean)",NR2F6; 2 uM,1.1
same,"Firefly F4, cmpd/DMSO (mean)",NR2F6; 10 uM,2.7
same,"Firefly F4, cmpd/DMSO (mean)",NR2F6; 40 uM,5.2
same,"F4, Firefly/Renilla for S/B(F4) > 3","NR2F6; 1% FBS, 40 uM",3.1
same,"Firefly, F4/pGL4 for S/B(F4) > 3","NR2F6; 1% FBS, 40 uM",4.7
same,"F4, Firefly/Renilla for S/B(F4) > 3","NR2F6; 10% FBS, 40 uM",3.5
same,"Firefly, F4/pGL4 for S/B(F4) > 3","NR2F6; 10% FBS, 40 uM",3.0
same,"Firefly, F4, 1% FBS, cmpd/DMSO (mean)","NR2F6; 1% FBS, 0.5 uM",0.8
same,"Firefly, F4, 1% FBS, cmpd/DMSO (mean)","NR2F6; 1% FBS, 2 uM",1.0
same,"Firefly, F4, 1% FBS, cmpd/DMSO (mean)","NR2F6; 1% FBS, 10 uM",2.4
same,"Firefly, F4, 1% FBS, cmpd/DMSO (mean)","NR2F6; 1% FBS, 40 uM",7.4
same,"Firefly, F4, 10% FBS, cmpd/DMSO (mean)","NR2F6; 10% FBS, 0.5 uM",0.4
same,"Firefly, F4, 10% FBS, cmpd/DMSO (mean)","NR2F6; 10% FBS, 2 uM",1.4
same,"Firefly, F4, 10% FBS, cmpd/DMSO (mean)","NR2F6; 10% FBS, 10 uM",1.9
same,"Firefly, F4, 10% FBS, cmpd/DMSO (mean)","NR2F6; 10% FBS, 40 uM",12
same,activation of full-length NR2F6,NR2F6; cellular assays,Activates
same,stability in presence of mouse liver microsomes,[2],Extremely stable
same,"Firefly LBD, cmpd/DMSO (mean)",NR2F6 LBD; 0.5 uM,1.0
same,"Firefly LBD, cmpd/DMSO (mean)",NR2F6 LBD; 2 uM,1.5
same,"Firefly LBD, cmpd/DMSO (mean)",NR2F6 LBD; 10 uM,2.6
same,"Firefly LBD, cmpd/DMSO (mean)",NR2F6 LBD; 40 uM,2.9
same,activation of ligand binding domain-only NR2F6,NR2F6 LBD; cellular assays,Activates
same,fold induction at 0.5 µM,Renilla [3]; [6],0.9
same,fold induction at 2 µM,Renilla [3]; [6],1.1
same,fold induction at 10 µM,Renilla [3]; [6],1.4
same,fold induction at 40 µM,Renilla [3]; [6],1.7
same,fold induction at 0.5 µM,Renilla [3]; [7],1.1
same,fold induction at 2 µM,Renilla [3]; [7],1.1
same,fold induction at 10 µM,Renilla [3]; [7],1.5
same,fold induction at 40 µM,Renilla [3]; [7],2.4
same,fold induction at 0.5 µM,Renilla [3]; [8],0.9
same,fold induction at 2 µM,Renilla [3]; [8],0.9
same,fold induction at 10 µM,Renilla [3]; [8],1.2
same,fold induction at 40 µM,Renilla [3]; [8],3.3
same,fold induction at 0.5 µM,"HEK293 pGL4; HEK293, 0.5 uM, read-out: Firefly pGL4, cmpd/DMSO (mean)",1.1
same,fold induction at 2 µM,"HEK293 pGL4; HEK293, 2 uM, read-out: Firefly pGL4, cmpd/DMSO (mean)",1
same,fold induction at 10 µM,"HEK293 pGL4; HEK293, 10 uM, read-out: Firefly pGL4, cmpd/DMSO (mean)",1.8
same,fold induction at 40 µM,"HEK293 pGL4; HEK293, 40 uM, read-out: Firefly pGL4, cmpd/DMSO (mean)",2.6
same,fold induction at 0.5 µM,"HEK293 pGL4; HEK293, pGL4, 1% FBS, 0.5 uM, read-out: Firefly, pGL4, 1% FBS, cmpd/DMSO (mean)",1.1
same,fold induction at 2 µM,"HEK293 pGL4; HEK293, pGL4, 1% FBS, 2 uM, read-out: Firefly, pGL4, 1% FBS, cmpd/DMSO (mean)",0.9
same,fold induction at 10 µM,"HEK293 pGL4; HEK293, pGL4, 1% FBS, 10 uM, read-out: Firefly, pGL4, 1% FBS, cmpd/DMSO (mean)",1.3
same,fold induction at 40 µM,"HEK293 pGL4; HEK293, pGL4, 1% FBS, 40 uM, read-out: Firefly, pGL4, 1% FBS, cmpd/DMSO (mean)",1.6
same,fold induction at 0.5 µM,"HEK293 pGL4; HEK293, pGL4, 10% FBS, 0.5 uM, read-out: Firefly, pGL4, 10% FBS, cmpd/DMSO (mean)",1.3
same,fold induction at 2 µM,"HEK293 pGL4; HEK293, pGL4, 10% FBS, 2 uM, read-out: Firefly, pGL4, 10% FBS, cmpd/DMSO (mean)",1.1
same,fold induction at 10 µM,"HEK293 pGL4; HEK293, pGL4, 10% FBS, 10 uM, read-out: Firefly, pGL4, 10% FBS, cmpd/DMSO (mean)",1.8
same,fold induction at 40 µM,"HEK293 pGL4; HEK293, pGL4, 10% FBS, 40 uM, read-out: Firefly, pGL4, 10% FBS, cmpd/DMSO (mean)",3.8
same,MTD and acute toxicity,[4],no toxicity was observed
same,stability in presence of human liver microsomes,[5],Extremely stable
